Reference: US7468391B2, “Methods for treating retinoid responsive disorders using selective inhibitors of CYP26A and CYP26B” (Allergan, Inc., priority 2003, dated 2008)

What was measured:
RAR γ = biological target: T1, RAR γ (Homo sapiens, UniProt P13631); test: RAR γ Kd; assay type: binding; details: last item of cell EC50/(EFFICACY)/Kd
T1 sequence (P13631 1-454): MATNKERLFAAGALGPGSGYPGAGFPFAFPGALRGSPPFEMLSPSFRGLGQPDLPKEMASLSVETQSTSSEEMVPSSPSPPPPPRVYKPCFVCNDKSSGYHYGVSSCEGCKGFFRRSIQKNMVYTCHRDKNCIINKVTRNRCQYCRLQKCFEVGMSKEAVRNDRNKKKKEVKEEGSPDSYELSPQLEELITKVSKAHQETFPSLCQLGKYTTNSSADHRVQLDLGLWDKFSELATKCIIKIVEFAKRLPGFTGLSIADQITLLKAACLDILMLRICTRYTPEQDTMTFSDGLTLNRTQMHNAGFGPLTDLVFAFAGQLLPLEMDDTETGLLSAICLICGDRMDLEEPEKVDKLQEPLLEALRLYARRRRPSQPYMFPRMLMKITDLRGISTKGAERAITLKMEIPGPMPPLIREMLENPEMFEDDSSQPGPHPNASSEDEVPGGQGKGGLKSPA

CYP26B (P450RAI-2) = biological target: T2, CYP26B (P450RAI-2) (Homo sapiens, UniProt Q9NR63); test: Cell-based inhibition of RA metabolism in CYP26B stably transfected HeLa cells; details: stably transfected HeLa cells, [3H]-RA, 3 hours at 37° C.; read-out: P450RAI-2 Whole cell IC50
T2 construct: expressed in transfected cells; host or cells: HeLa
T2 sequence (Q9NR63 1-512): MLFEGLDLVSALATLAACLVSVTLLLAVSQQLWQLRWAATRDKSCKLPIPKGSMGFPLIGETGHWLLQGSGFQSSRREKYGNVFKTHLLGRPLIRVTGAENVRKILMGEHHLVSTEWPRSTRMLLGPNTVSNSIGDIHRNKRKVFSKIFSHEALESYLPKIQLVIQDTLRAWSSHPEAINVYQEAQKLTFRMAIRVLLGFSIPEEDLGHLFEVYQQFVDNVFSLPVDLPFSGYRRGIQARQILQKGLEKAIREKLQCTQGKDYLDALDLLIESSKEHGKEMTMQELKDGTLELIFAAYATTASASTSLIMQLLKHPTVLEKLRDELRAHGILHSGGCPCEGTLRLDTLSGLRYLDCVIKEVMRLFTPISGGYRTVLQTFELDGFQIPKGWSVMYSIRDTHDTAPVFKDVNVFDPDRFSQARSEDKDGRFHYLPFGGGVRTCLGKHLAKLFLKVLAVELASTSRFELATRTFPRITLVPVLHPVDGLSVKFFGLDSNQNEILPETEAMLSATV
Protocol: (§1) In brief, CYP26A or CYP26B can be stably transfected into HeLa cells. Exponentially growing cells are harvested by incubating in trypsin. Cells are then washed and plated in a 48-well plate at 5×10^5 cells in 0.2 ml MEM medium containing 10% FBS and 0.05 μCi [^3H]-RA in the presence or absence of increasing concentrations of the test compounds. The compounds are diluted in 100% DMSO and then added in triplicate wells at either 10, 1 or 0.1 μM final concentration. As a positive control for RA metabolism inhibition, cells are also incubated with ketoconazole at 100, 10 and 1 μM. Cells are incubated for 3 hours at 37 degrees C. The retinoids are then extracted using the procedure of Bligh et al., Canadian Journal of Biochemistry 37: 911-917 (1959), modified by using methylenechloride instead of chloroform. This publication by Bligh et al., is specifically incorporated herein by reference. The water soluble radioactivity is quantified using a β scintillation counter, and IC50 values are determined.
(§2) CYP26A and CYP26B stably transfected HeLa cells were maintained in 100 mm tissue culture dishes in MEM medium containing 10% FBS and 100 μg/ml hygromycin.
(§3) Exponentially growing cells were harvested by incubating in trypsin. Cells were then washed with 1×PBS and plated in a 48-well plate at 5×10^5 cells in 0.2 ml MEM medium containing 10% FBS and 0.05 μCi [^3H]-RA in the presence or absence of increasing concentrations of the test compounds. The compounds were diluted in 100% DMSO and then added to triplicate wells at final concentrations of 10, 1 or 0.1 μM. As a positive control for RA metabolism inhibition, cells were also incubated with ketoconazole at 100, 10 and 1 μM. Cells were incubated for 3 hours at 37° C. The retinoids were then extracted using a modified Bligh and Dyer procedure (Bligh and Dyer, supra (1959)), in which methylene-chloride, as opposed to chloroform, was used, and the aqueous soluble radioactivity quantified using a β-scintillation counter. ID50 values represent the concentration of inhibitor required to inhibit RA metabolism by 50 percent and were derived manually from log-transformed data.

CYP26A (P450RAI-1) = biological target: T3, CYP26A (P450RAI-1) (Homo sapiens, UniProt O43174); test: Cell-based inhibition of RA metabolism in CYP26A stably transfected HeLa cells; details: stably transfected HeLa cells, [3H]-RA, 3 hours at 37° C.; read-out: P450RAI-1 Whole cell IC50
T3 construct: expressed in transfected cells; host or cells: HeLa
T3 sequence (O43174 1-497): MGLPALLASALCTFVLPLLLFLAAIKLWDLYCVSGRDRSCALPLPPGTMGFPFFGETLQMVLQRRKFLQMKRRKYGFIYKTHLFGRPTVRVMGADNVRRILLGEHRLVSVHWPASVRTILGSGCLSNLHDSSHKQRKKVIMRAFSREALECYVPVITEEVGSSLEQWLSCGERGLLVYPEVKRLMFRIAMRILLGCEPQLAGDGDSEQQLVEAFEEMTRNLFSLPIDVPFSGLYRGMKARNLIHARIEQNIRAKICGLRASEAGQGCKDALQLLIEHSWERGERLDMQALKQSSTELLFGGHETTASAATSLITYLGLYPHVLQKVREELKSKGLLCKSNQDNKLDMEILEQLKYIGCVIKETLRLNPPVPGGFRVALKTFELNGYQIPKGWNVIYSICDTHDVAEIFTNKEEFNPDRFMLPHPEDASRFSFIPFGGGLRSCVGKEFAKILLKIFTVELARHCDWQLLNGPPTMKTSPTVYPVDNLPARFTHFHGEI
Protocol: as §1, §2, §3

RAR α = biological target: T4, RAR α (Homo sapiens, UniProt P10276); test: RAR α Kd; assay type: binding; details: last item of cell EC50/(EFFICACY)/Kd
T4 sequence (P10276 1-462): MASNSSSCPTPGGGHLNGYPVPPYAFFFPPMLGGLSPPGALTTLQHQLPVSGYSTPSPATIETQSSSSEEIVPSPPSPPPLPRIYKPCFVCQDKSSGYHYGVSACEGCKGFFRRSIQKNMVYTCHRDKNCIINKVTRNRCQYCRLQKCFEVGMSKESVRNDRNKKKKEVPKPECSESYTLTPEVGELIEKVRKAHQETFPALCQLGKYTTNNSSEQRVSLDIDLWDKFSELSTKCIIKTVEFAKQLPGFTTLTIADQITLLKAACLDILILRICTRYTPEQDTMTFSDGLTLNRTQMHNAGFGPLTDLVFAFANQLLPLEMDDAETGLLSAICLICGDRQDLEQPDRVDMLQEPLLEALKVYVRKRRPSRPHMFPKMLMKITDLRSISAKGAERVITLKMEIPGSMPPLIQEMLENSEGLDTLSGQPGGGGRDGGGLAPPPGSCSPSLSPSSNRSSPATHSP

RAR β = biological target: T5, RAR β (Homo sapiens, UniProt P10826); test: RAR β Kd; assay type: binding; details: last item of cell EC50/(EFFICACY)/Kd
T5 sequence (P10826 1-455): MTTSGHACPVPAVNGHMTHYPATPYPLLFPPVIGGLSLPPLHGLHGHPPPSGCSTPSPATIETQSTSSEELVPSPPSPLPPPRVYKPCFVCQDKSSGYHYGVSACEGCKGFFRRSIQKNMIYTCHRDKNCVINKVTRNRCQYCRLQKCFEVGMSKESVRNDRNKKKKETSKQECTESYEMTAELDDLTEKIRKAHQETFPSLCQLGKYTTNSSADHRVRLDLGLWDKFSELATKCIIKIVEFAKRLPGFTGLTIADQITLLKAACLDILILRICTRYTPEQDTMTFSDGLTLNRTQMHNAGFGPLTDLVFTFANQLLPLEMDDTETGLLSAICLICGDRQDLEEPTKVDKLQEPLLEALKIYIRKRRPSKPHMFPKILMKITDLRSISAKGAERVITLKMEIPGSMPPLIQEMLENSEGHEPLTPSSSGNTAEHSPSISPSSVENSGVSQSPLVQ

SMILES | Kd (RAR γ) | IC50 (CYP26B (P450RAI-2)) | IC50 (CYP26A (P450RAI-1)) | Kd (RAR α) | Kd (RAR β)
CC1(C)CC(C)(C)c2cc(C#Cc3ccc(C(C)(C)C(=O)O)cc3)cc(O)c2O1 [Compound 12, 2-[4-(8-Hydroxy-2,2,4,4-tetramethyl-chroman-6-ylethynyl)-phenyl]-2-methyl-propionic acid] | > 10 µM | > 10 µM | 0.16 µM | > 10 µM | > 10 µM
COc1cc(C#Cc2ccc(/C=C/C(=O)O)cc2)cc2c1C(N(C)C1CC1)CCC2(C)C (stereo not drawn) [Compound 29, (E)-3-{4-[5-(Cyclopropyl-methyl-amino)-4-methoxy-8,8-dimethyl-5,6,7,8-tetrahydro-naphthalen-2-ylethynyl]-phenyl}-acrylic acid] | > 10 µM | > 10 µM | 0.6 µM | > 10 µM | > 10 µM
C#Cc1cc(C#Cc2ccc(CC(=O)O)c(F)c2)cc(C(=O)OC(C)C)c1 [Compound 61, 3-(4-Carboxymethyl-3-fluoro-phenylethynyl)-5-ethynyl-benzoic acid isopropyl ester] | > 10 µM | 8.1 µM | 0.22 µM | > 10 µM | > 10 µM
C/C(=C/C(=O)O)c1ccc(C#Cc2cccc(CN(C)C3CC3)c2)cc1 [Compound 32, 3-(4-{3-[(Cyclopropyl-methyl-amino)-methyl]-phenylethynyl}-phenyl)-but-2-enoic acid] | > 10 µM | > 10 µM | 0.44 µM | > 10 µM | > 10 µM
CN(C1CC1)C1CCC(C)(C)c2cc(NC(=O)Nc3ccc(C(=O)O)cc3)ccc21 (stereo not drawn) [Compound 21, 4-{3-[5-(Cyclopropyl-methyl-amino)-8,8-dimethyl-5,6,7,8-tetrahydro-naphthalen-2-yl]-ureido}-benzoic acid] | > 10 µM | 0.7 µM | > 10 µM | > 10 µM | > 10 µM
CN(Cc1cc(C#Cc2ccc(C(C)(C)C(=O)O)cc2)cc2c1OC(C)(C)CC2(C)C)C1CC1 [Compound 9, 2-(4-{8-[(Cyclopropyl-methyl-amino)-methyl]-2,2,4,4-tetramethyl-chroman-6-ylethynyl}-phenyl)-2-methyl-propionic acid] | > 10 µM | > 10 µM | 0.12 µM | > 10 µM | > 10 µM

Now from value to compound:

Kd (RAR γ) | IC50 (CYP26B (P450RAI-2)) | IC50 (CYP26A (P450RAI-1)) | Kd (RAR α) | Kd (RAR β) | SMILES
> 10 µM | 7.5 µM | 0.7 µM | > 10 µM | 8.17 µM | CC(C)OC(=O)c1cccc(C#Cc2ccc(CC(=O)O)c(F)c2)c1 [Compound 44, 3-(4-Carboxymethyl-3-fluoro-phenylethynyl)-benzoic acid isopropyl ester]
> 10 µM | > 10 µM | 0.6 µM | 8.9 µM | > 10 µM | CC(C)c1cc(C#Cc2cccc(/C=C/C(=O)O)c2)cc2c1OC(C)(C)CC2(C)C [Compound 15, 3-[3-(8-Isopropyl-2,2,4,4-tetramethyl-chroman-6-ylethynyl)-phenyl]-acrylic acid]
> 10 µM | 8 µM | 0.06 µM | 0.397 µM | > 10 µM | CC(C)Oc1cc(C#Cc2ccc(CC(=O)O)cc2)cc2c1OC(C)(C)CC2(C)C [Compound 13, [4-(8-Isopropoxy-2,2,4,4-tetramethyl-chroman-6-ylethynyl)-phenyl]-acetic acid]
3.49 µM | 8 µM | 0.009 µM | 2.09 µM | 3.02 µM | CC(C(=O)O)c1ccc(C#Cc2cc(C3CC3)c3c(c2)C(C)(C)CC2(CC2)O3)cc1 (stereo not drawn) [Compound 1, 2-{4-[(8-Cyclopropyl-3,4-dihydro-4,4-dimethylspiro[2H-1-benzopyran-2,1′-cyclopropane]-6-yl)ethynyl]-phenyl}-propionic acid]
4.2 µM | > 10 µM | 0.25 µM | > 10 µM | > 10 µM | COc1cc(C#Cc2ccc(C(C)(C)C(=O)O)cc2)cc2c1C(N(C)C1CC1)CCC2(C)C (stereo not drawn) [Compound 28, 2-{4-[5-(Cyclopropyl-methyl-amino)-4-methoxy-8,8-dimethyl-5,6,7,8-tetrahydro-naphthalen-2-ylethynyl]-phenyl}-2-methyl-propionic acid]
5.58 µM | > 10 µM | 0.03 µM | 0.558 µM | 3.44 µM | CC1(C)CC2(CC2)Oc2c(C3CC3)cc(C#Cc3ccc(C(C)(C)C(=O)O)cc3)cc21 [Compound 2, 2-{4-[(8-Cyclopropyl-3,4-dihydro-4,4-dimethylspiro[2H-1-benzopyran-2,1′-cyclopropane]-6-yl)ethynyl]-phenyl}-2-methyl-propionic acid]
